# Activity calls are given as the source filed them.
# How the values were obtained:
# [1] = target: T1, Bcl-2-related protein A1 (Mus musculus, UniProt Q07440); assay: Bfl-1 binding inhibitors, SAR follow-up, biochemical, fluorescence polarization (AID 1070)
# T1 sequence (Q07440 whole entry): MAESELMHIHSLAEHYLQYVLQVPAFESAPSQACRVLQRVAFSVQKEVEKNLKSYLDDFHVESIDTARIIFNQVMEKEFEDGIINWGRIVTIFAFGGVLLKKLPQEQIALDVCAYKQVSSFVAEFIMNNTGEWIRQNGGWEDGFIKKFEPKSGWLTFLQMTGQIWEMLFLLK
# [2] = target: Glyceraldehyde-3-phosphate dehydrogenase (Homo sapiens, UniProt P04406)
# Glyceraldehyde-3-phosphate dehydrogenase, sequence (P04406 whole entry): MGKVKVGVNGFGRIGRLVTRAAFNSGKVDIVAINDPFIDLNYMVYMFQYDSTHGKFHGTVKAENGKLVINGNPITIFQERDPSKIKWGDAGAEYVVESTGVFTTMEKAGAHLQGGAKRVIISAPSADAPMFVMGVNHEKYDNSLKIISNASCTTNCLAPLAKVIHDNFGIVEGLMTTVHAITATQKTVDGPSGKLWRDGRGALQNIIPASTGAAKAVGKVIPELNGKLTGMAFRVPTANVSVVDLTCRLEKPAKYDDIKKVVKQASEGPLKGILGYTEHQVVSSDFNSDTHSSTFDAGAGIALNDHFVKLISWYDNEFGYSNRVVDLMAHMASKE
# [3] = target: T1, Bcl-2-related protein A1; assay: small-molecule antagonists of Bfl-1/BH3 interaction – biochemical, TR-FRET, mouse Bfl-1, confirmation (AID 621);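 note: TR-FRET binding of GST-Bfl-1 to FITC-labelled Bid peptide via terbium antibody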
# [4] = target: T2, Streptokinase A (Streptococcus pyogenes serotype M1, UniProt P10520); assay: viability-normalized secreted streptokinase activity reduction – plasminogen activation absorbance, OD405, dose response (AID 1914); type: functional, Streptococcus pyogenes M1 GAS;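 note: secreted streptokinase activity via plasminogen activation per viability signal from cell pellet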
# T2 sequence (P10520 whole entry): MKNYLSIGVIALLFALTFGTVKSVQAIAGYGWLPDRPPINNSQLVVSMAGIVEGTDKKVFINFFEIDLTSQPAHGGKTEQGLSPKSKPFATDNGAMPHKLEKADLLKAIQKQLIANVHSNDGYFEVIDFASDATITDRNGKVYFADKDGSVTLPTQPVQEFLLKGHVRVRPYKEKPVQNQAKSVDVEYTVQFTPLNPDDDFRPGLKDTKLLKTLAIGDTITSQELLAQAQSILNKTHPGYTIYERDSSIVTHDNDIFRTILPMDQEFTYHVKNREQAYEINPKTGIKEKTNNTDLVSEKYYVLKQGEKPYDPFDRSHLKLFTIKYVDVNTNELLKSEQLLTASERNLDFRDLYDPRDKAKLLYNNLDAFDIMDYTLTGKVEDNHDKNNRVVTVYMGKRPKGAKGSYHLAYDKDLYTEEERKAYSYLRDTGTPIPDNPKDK
# [5] = system: Streptococcus sp. 'group A'; assay: Streptococcus pyogenes SK(-)GAS viability under kanamycin – luminescence, BacTiterGlo, confirmation, counter-screen for streptokinase expression inhibitor project, dose response (AID 1900); type: functional, organism-based
# [6] = target: Aryl hydrocarbon receptor (Homo sapiens, UniProt P35869); assay: Luminescence-based cell-based high throughput dose response assay for activators of the Aryl Hydrocarbon Receptor (AHR). [Related pubchem assays: 2796 (Primary screen (AHR activators in singlicate)), 2845 (Confirmation screen (AHR activators in triplicate)), 434939 (Counterscreen (PXR activators in triplicate)), 2804 (Summary (AHR activators))]; type: ADME
# Aryl hydrocarbon receptor, sequence (P35869 whole entry): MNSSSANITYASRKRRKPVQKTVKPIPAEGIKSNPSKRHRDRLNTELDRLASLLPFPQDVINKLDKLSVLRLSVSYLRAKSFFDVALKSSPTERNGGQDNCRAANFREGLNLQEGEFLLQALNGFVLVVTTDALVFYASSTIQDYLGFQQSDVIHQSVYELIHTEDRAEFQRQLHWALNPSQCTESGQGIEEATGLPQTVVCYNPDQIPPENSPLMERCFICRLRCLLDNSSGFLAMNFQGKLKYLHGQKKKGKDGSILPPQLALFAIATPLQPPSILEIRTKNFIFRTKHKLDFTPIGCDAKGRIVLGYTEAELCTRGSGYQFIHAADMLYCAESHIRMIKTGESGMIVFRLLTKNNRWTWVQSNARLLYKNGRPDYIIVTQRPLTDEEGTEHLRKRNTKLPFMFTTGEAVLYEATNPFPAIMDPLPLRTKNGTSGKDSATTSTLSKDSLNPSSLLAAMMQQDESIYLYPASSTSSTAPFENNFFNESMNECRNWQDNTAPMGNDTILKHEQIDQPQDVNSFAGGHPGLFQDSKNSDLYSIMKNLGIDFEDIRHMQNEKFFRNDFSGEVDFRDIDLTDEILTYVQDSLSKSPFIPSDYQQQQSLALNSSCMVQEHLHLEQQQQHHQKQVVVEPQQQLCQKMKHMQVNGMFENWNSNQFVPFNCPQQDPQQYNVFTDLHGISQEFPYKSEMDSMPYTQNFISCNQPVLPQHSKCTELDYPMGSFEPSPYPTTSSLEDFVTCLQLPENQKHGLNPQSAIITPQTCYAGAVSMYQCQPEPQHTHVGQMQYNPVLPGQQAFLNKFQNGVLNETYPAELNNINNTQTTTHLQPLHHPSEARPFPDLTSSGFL
# [7] = system: Streptococcus; assay: GAS UMAA2166 growth inhibition – luminescence, BacTiterGlo, counter-screen for streptokinase expression inhibitor project, dose response (AID 1915); type: functional, organism-based;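 note: potency for reduction of bacterial viability or growth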
# [8] = target: T1, Bcl-2-related protein A1; assay: displacement of Bid BH3 peptide from Bfl-1 – biochemical, fluorescence polarization, FITC-Bid, mouse, primary screen (AID 432)
# [9] = target: T3, RNA-binding protein pos-1 (Caenorhabditis elegans, UniProt G5EF15); assay: disruptors of C. elegans POS-1 RNA interaction – biochemical, fluorescence polarization, dose response (AID 1964);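 note: purified POS-1 fused to maltose binding protein made in E. coli; potency of compounds blocking POS-1 binding to fluorescent RNA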
# T3 sequence (G5EF15 whole entry): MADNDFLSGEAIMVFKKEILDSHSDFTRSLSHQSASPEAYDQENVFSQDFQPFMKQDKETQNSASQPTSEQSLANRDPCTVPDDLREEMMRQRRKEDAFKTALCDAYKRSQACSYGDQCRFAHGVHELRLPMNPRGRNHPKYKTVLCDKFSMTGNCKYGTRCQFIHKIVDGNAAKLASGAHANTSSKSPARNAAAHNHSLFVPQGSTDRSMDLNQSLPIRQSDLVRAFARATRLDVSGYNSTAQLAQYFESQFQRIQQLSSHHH
# [10] = target: T4, Zinc finger protein mex-5 (Caenorhabditis elegans, UniProt Q9XUB2); assay: potency of MEX-5 RNA-binding blockers – biochemical, C. elegans, fluorescence polarization, dose response (AID 1960)
# T4 sequence (Q9XUB2 whole entry): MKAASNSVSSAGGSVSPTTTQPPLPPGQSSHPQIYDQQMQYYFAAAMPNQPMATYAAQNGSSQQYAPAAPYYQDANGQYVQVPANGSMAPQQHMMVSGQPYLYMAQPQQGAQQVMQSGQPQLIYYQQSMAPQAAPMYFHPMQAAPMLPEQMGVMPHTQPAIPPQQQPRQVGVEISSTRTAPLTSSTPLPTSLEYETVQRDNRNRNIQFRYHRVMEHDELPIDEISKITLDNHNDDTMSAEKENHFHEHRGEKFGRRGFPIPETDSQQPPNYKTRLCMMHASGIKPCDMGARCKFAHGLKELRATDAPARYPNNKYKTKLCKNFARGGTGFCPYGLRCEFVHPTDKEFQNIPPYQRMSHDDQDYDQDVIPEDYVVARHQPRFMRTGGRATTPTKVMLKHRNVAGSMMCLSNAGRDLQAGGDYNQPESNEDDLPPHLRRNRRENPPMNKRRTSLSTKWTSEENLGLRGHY
# [11] = viability loss in Vero cells – cytotoxicity control for Vif-APOBEC3G degradation inhibitor project, dose response (AID 1117358); type: functional; conditions: Vero
# [12] = target: Ephrin type-A receptor 4 (Mus musculus, UniProt Q03137); assay: EphA4 ligand-binding antagonists – biochemical, colorimetric, mouse EphA4, primary screen (AID 689); type: functional
# [13] = target: Luciferin 4-monooxygenase (Photinus pyralis, UniProt P08659); assay: inhibition of purified Photinus pyralis luciferase – biochemical, luminescence, dose response (AID 1891)
# Luciferin 4-monooxygenase, sequence (P08659 whole entry): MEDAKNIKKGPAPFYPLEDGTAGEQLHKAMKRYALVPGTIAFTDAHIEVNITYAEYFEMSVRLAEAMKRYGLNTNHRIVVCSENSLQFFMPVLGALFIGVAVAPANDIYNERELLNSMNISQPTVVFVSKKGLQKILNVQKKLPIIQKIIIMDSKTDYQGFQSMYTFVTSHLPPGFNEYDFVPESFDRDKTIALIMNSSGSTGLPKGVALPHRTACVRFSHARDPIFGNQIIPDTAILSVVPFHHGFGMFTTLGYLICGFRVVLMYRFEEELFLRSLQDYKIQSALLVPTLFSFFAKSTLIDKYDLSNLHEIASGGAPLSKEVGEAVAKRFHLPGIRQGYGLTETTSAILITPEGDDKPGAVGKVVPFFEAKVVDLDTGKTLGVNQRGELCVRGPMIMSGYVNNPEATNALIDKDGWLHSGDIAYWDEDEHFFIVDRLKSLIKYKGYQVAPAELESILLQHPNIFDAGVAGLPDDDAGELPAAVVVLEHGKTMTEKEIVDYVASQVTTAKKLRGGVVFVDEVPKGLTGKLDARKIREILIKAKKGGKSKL
# [14] = Luminescence Cell-Based Dose Confirmation HTS to Identify Inhibitors of Platelet Dense Granule Release. [Related pubchem assays: 1663 (Primary HTS), 1678 (Summary of Project)]; type: functional
# [15] = target: Transitional endoplasmic reticulum ATPase (Homo sapiens, UniProt P55072, C522A); assay: Luminescence counterscreen assay for p97 inhibitors: dose response biochemical high throughput screening assay to identify inhibitors of the C522A mutant p97 ATPase: synthesized compounds. [Related pubchem assays: 1481, 1517, 1551 ]
# Transitional endoplasmic reticulum ATPase (Homo sapiens, UniProt P55072, C522A), sequence (P55072 2-806 C522A limits assumed): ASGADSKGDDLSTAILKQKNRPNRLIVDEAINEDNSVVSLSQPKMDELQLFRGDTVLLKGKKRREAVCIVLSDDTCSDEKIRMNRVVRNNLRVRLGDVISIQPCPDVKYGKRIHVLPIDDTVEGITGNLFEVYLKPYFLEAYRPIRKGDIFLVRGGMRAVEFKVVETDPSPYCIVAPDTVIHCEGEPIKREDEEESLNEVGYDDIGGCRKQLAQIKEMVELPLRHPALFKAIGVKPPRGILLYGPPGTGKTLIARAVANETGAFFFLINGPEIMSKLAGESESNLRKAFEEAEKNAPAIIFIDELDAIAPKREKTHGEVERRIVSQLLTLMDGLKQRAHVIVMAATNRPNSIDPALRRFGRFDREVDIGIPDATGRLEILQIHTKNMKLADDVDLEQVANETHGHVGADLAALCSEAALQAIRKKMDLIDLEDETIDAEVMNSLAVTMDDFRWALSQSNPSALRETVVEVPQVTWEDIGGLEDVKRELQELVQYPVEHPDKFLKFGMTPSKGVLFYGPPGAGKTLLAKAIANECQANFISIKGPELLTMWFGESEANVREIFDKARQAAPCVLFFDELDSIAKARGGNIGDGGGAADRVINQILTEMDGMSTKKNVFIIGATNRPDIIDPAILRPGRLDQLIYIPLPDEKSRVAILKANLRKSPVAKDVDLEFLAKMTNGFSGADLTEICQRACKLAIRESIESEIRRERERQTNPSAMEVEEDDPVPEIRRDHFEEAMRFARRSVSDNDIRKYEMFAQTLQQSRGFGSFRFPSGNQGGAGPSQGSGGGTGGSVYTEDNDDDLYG
# [16] = target: Transitional endoplasmic reticulum ATPase (Homo sapiens, UniProt P55072); assay: Luminescence dose response biochemical high throughput screening assay for inhibitors of the p97 ATPase: synthesized compounds. [Related pubchem assays: 1481, 1517 ]
# [17] = target: SWI/SNF-related matrix-associated actin-dependent regulator of chromatin subfamily A member 2 (Homo sapiens, UniProt P51531); assay: Luminescence-based cell-based high throughput dose response assay to identify activators of the function of SWI/SNF related, matrix associated, actin dependent regulator of chromatin, subfamily a, member 2 (SMARCA2, BRM).; type: functional
# [18] = target: Cytochrome P450 2C9 (Homo sapiens, UniProt P11712)
# [19] = Luminescence-based cell-based high throughput dose response assay to identify activators of the DAF-12 from the parasite S. stercoralis (ssDAF-12).; type: functional
# [20] = target: Transthyretin (Homo sapiens, UniProt P02766); assay: Luminescence-based cell-based high throughput dose response assay to identify activators of Transthyretin (TTR) transcription.; type: functional
# [21] = target: Photoreceptor-specific nuclear receptor (Homo sapiens, UniProt Q9Y5X4); type: functional, cell-based;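 note: CHO-S cells with Gal4-NCOR and VP16-NR2E3 two-hybrid luciferase reporter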
# Photoreceptor-specific nuclear receptor, sequence (Q9Y5X4 whole entry, the tested form may be a part): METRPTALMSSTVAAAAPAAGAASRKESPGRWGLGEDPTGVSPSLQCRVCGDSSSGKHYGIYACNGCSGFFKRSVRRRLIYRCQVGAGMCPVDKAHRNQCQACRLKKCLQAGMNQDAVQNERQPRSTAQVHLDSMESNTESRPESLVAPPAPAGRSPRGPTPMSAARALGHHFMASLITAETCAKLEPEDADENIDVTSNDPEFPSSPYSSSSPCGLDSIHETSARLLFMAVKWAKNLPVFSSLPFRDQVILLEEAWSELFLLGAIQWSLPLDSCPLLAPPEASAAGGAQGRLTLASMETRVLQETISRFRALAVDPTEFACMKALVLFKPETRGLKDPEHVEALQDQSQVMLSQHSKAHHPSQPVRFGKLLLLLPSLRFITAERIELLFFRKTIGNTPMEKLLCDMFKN
# [22] = Counterscreen for activators of the function of SWI/SNF related, matrix associated, actin dependent regulator of chromatin, subfamily a, member 2 (SMARCA2, BRM): Luminescence-based cell-based high throughput dose response assay to identify non-selective compounds using the VP16 reporter assay.; type: functional
# [23] = system: Vero; assay: Vero cell viability after compound exposure – synthesized analogs, set II, cytotoxicity control for West Nile virus antiviral project, SAR follow-up (AID 2402); type: functional; conditions: Chlorocebus sabaeus
# [24] = target: Voltage-gated inwardly rectifying potassium channel KCNH2 (Homo sapiens, UniProt Q12809); assay: concentration-dependent hERG rescue from blockers – cell-based, thallium flux, dose response (AID 2121); type: ADME
# Voltage-gated inwardly rectifying potassium channel KCNH2, sequence (Q12809 whole entry): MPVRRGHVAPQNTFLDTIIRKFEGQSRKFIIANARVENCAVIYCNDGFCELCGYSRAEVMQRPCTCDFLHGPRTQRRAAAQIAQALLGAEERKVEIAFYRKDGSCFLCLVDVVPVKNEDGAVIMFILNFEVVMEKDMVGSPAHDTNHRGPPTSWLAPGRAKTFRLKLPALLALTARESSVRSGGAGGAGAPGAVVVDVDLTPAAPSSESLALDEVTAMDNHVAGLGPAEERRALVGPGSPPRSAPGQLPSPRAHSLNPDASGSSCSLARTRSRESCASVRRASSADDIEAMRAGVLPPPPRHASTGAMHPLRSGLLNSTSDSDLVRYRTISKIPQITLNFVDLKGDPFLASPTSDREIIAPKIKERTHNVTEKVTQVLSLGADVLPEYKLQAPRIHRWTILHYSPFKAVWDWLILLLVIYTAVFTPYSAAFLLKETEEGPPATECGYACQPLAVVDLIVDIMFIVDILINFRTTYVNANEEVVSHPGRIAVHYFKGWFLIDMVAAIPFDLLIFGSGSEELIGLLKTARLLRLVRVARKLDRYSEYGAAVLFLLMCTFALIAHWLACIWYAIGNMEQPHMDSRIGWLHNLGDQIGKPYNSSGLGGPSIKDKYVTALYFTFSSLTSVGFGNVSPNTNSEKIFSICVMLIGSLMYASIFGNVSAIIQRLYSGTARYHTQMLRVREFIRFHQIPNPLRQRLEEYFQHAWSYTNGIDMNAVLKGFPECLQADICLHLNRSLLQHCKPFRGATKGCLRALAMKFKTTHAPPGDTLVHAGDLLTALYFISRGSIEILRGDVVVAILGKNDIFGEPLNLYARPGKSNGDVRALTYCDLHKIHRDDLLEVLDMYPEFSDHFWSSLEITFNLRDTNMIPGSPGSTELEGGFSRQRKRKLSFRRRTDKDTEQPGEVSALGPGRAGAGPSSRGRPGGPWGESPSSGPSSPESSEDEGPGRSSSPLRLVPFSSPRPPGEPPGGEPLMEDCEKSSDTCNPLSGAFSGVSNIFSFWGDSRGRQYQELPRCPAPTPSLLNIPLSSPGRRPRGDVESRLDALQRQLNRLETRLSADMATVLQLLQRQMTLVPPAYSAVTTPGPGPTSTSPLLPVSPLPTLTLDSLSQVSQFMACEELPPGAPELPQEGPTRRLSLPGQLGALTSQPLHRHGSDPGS
# [25] = target: NADPH oxidase 1 (Homo sapiens, UniProt Q9Y5S8); assay: Late-stage luminescence-based cell-based dose response assay to identify inhibitors of NADPH oxidase 1 (NOX1): Synthesized analogs 3.; type: functional
# [26] = target: Signal transducer and activator of transcription 1-alpha/beta (Homo sapiens, UniProt P42224); assay: inhibition of STAT1 reporter activity – cell-based, NIH 3T3, luciferase reporter, dose response (AID 1396); type: functional
# [27] = target: RNA-editing ligase 1, mitochondrial (Trypanosoma brucei brucei, UniProt P86926); assay: inhibition of trypanosome RNA editing ligase – biochemical, fluorescence, Trypanosoma brucei, dose response (AID 1117295); type: functional
# [28] = target: T5, Phospholipase D1 (Homo sapiens, UniProt Q13393); assay: PLD1 Cellular Concentration Response Study.; type: functional
# T5 sequence (Q13393 whole entry): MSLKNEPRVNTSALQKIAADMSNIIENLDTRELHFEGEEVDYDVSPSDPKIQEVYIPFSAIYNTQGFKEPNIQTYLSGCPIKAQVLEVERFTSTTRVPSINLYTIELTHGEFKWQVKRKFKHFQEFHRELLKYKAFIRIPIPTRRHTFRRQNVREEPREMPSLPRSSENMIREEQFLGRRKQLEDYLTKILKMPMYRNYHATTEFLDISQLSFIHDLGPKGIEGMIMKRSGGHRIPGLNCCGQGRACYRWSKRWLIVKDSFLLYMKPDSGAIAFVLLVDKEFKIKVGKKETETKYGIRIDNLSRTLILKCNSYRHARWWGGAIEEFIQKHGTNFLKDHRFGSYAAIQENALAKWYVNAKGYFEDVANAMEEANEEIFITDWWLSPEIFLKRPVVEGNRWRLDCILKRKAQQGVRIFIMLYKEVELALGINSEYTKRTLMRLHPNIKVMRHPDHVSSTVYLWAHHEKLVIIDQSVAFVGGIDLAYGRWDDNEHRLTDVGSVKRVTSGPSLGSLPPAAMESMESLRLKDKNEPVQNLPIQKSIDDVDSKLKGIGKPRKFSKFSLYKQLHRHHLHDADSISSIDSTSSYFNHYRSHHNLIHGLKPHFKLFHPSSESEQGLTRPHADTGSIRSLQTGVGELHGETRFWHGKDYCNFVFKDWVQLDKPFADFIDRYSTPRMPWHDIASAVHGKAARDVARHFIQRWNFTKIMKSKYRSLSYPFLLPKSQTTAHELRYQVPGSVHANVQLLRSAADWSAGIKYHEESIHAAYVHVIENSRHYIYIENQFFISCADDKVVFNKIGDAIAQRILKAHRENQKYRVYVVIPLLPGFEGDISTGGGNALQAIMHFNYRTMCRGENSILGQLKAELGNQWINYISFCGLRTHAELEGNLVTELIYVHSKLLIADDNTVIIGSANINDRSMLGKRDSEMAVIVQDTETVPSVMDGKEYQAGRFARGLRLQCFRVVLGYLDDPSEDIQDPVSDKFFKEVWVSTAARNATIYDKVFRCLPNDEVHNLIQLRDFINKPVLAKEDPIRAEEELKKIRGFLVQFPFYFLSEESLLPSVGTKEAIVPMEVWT
# [29] = target: Phospholipase D2 (Homo sapiens, UniProt O14939); assay: PLD2 Cellular Concentration Response Study.; type: functional
# Phospholipase D2, sequence (O14939 whole entry): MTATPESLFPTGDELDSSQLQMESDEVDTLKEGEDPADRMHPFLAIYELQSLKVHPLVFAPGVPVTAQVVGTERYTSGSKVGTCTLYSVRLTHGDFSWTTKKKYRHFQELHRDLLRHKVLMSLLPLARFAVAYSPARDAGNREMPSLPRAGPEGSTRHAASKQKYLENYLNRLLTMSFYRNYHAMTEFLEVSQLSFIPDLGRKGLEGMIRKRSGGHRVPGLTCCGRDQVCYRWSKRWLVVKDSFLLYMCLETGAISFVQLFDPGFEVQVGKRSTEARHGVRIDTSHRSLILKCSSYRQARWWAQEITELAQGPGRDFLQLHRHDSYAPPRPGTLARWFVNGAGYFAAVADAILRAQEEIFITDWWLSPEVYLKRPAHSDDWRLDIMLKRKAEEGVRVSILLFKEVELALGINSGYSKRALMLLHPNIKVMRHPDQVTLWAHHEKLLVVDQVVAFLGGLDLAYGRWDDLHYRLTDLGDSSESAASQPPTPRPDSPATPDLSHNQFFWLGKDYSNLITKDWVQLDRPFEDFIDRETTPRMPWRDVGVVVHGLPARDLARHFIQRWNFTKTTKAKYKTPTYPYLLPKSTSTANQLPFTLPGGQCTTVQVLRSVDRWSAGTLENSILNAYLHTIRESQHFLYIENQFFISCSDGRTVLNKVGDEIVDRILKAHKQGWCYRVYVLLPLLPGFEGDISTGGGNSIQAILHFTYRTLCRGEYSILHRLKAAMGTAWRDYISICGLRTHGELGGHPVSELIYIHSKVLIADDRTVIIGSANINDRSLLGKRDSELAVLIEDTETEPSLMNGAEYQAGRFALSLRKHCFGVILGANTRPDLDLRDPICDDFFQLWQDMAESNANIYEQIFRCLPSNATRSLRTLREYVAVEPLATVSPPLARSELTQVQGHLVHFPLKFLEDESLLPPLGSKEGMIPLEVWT
# [30] = target: Metabotropic glutamate receptor 7 (Homo sapiens, UniProt Q14831); assay: potentiation of glutamate EC20 at mGlu7 – cell-based, calcium mobilization, Galpha15, dose response (AID 743384); type: functional
# [31] = cells; conditions: HEK293
smiles,measurement,setting,value
Cc1cccc(N2C(=O)C(Cl)=C(N3CCN(C)CC3)C2=O)c1,IC50,[1],12.6 µM (active)
same,IC50,[2],> 100 µM (not active)
same,IC50,[3],10.8 µM (active)
O=C(Nc1cccnc1)Nc1cc(Cl)cc(Cl)c1,EC50,[4],> 150 µM (not active)
same,EC50,[5],7.83 µM (active)
same,EC50,[6],> 1.13 µM (active)
same,EC50,[7],85.4 µM (active)
CN1CC=C2C(C#N)=C(N)C(C#N)(C#N)[C@H](c3cccc(Cl)c3)C2C1 (some centres not stated),IC50,[3],> 100 µM (not active)
same,IC50,[8],> 100 µM (not active)
same,EC50,[9],12.5 µM (active)
same,EC50,[10],11.6 µM (active)
CCOc1cc(C)c(Cl)cc1S(=O)(=O)NCc1ccco1,CC50,[11],27.7 µM (active)
Cc1c(NC(=O)CCN2C(=O)c3ccccc3C2=O)c(=O)n(-c2ccccc2)n1C,IC50,[12],> 100 µM (not active)
same,EC50,[13],> 112 µM (not active)
same,EC50,[14],> 112 µM (not active)
CCOc1ccc(-c2csc(Nc3ccc(C#N)cc3)n2)cc1,IC50,[15],> 50 µM (not active)
same,IC50,[16],> 50 µM (not active)
Cc1cnc(NC(=O)CCCc2nc3ccccc3s2)s1,EC50,[17],> 91.2 µM (inactive)
same,AC50,[18],5.62 µM (inconclusive)
same,IC50,[19],> 67.5 µM (inactive)
same,EC50,[20],> 167 µM (inactive)
same,IC50,[21],563 nM (active)
same,EC50,[22],> 91.2 µM (inactive)
O=c1c2cc(I)ccc2nc2n1CCC2,CC50,[23],> 100 µM (active)
CCc1nnc(NC(=O)CSc2nc(-c3ccccc3)cc(-c3ccc(OC)cc3)c2C#N)s1,EC50,[24],1.31 µM (active)
CN1c2ccc(Br)cc2Sc2cc(C(=O)c3ccccc3)ccc21,IC50,[25],> 20 µM (not active)
Cc1ccc(C2=NN=C(c3ccncc3)c3ccc4ccccc4c3N2)cc1,IC50,[26],3.52 µM (active)
COC(=O)C1=C(C)N(Cc2cccc(C(F)(F)F)c2)C(NCc2ccc(OC)cc2)=NC1c1ccc(F)cc1 (configuration not stated),IC50,[27],> 96.6 µM (inactive)
O=C(NCCN1CCC2(CC1)C(=O)NCN2Cc1ccccc1Cl)c1ccc2ccccc2c1,IC50,[28],2.3 µM (active)
same,IC50,[29],110 nM (active)
COC(=O)c1ccc(-n2c(C)cc(C(=O)CSCc3ccc(OC)cc3)c2C)cc1,EC50,[30],1 µM (active)
CC(C)Oc1cccc(OCCn2cnc3ccccc32)c1,AC50,[31],> 52 µM (inactive)

# From ChEMBL document CHEMBL1201862, “PubChem BioAssay data set” (2004)
